According to the supplement of paper PMC10307832:

How the values were obtained:
Assay in all cases: relative viability (nuclei count vs DMSO), 5 days (fraction); higher = more cells survive
ALW-II-49-7 + Crizotinib = compound: Cc1ccc(C(=O)Nc2cccc(C(F)(F)F)c2)cc1Nc1cncc(C(N)=O)c1 [ALW-II-49-7] + C[C@@H](Oc1cc(-c2cnn(C3CCNCC3)c2)cnc1N)c1c(Cl)ccc(F)c1Cl [Crizotinib] (partner 1 µM)
Outline: (§1)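 Nuclei were stained with Hoechst during a one-step fixation (final 0.05% Triton X-100, 1% formaldehyde, 1 ug/ml Hoechst) carried out 5 days after dosing, then counted on 4× images. The cells, lung cancer lines in 1536-well plates, had been dosed by pin tool the day after seeding with one drug alone or a fixed anchor-drug dose plus five library-drug doses (not always all listed) in √10 steps. Relative viability is the nuclei count in treated wells divided by that in vehicle wells, and each value is the median of duplicate plates.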

Dasatinib + Luminespib = compound: Cc1nc(Nc2ncc(C(=O)Nc3c(C)cccc3Cl)s2)cc(N2CCN(CCO)CC2)n1 [Dasatinib] + CCNC(=O)c1noc(-c2cc(C(C)C)c(O)cc2O)c1-c1ccc(CN2CCOCC2)cc1 [Luminespib] (partner 0.01 µM)
Outline: as §1

Dasatinib + Alpelisib = compound: Cc1nc(Nc2ncc(C(=O)Nc3c(C)cccc3Cl)s2)cc(N2CCN(CCO)CC2)n1 [Dasatinib] + Cc1nc(NC(=O)N2CCC[C@H]2C(N)=O)sc1-c1ccnc(C(C)(C)C(F)(F)F)c1 [Alpelisib] (partner 2 µM)
Outline: as §1

Dasatinib + Phenformin = compound: Cc1nc(Nc2ncc(C(=O)Nc3c(C)cccc3Cl)s2)cc(N2CCN(CCO)CC2)n1 [Dasatinib] + N=C(N)NC(=N)NCCc1ccccc1 [Phenformin] (partner 250 µM)
Outline: as §1

Cell Line | relative viability (ALW-II-49-7 + Crizotinib; first compound 0.08 µM) | relative viability (ALW-II-49-7 + Crizotinib; first compound 0.253 µM) | relative viability (ALW-II-49-7 + Crizotinib; first compound 0.8 µM) | relative viability (ALW-II-49-7 + Crizotinib; first compound 2.53 µM) | relative viability (ALW-II-49-7 + Crizotinib; first compound 8 µM) | relative viability (Dasatinib + Luminespib; first compound 0.005 µM) | relative viability (Dasatinib + Luminespib; first compound 0.01581 µM) | relative viability (Dasatinib + Luminespib; first compound 0.05 µM) | relative viability (Dasatinib + Luminespib; first compound 0.1581 µM) | relative viability (Dasatinib + Luminespib; first compound 0.5 µM) | relative viability (Dasatinib + Alpelisib; first compound 0.005 µM) | relative viability (Dasatinib + Alpelisib; first compound 0.01581 µM) | relative viability (Dasatinib + Alpelisib; first compound 0.05 µM) | relative viability (Dasatinib + Alpelisib; first compound 0.1581 µM) | relative viability (Dasatinib + Alpelisib; first compound 0.5 µM) | relative viability (Dasatinib + Phenformin; first compound 0.005 µM) | relative viability (Dasatinib + Phenformin; first compound 0.01581 µM) | relative viability (Dasatinib + Phenformin; first compound 0.05 µM) | relative viability (Dasatinib + Phenformin; first compound 0.1581 µM) | relative viability (Dasatinib + Phenformin; first compound 0.5 µM)
201T | 1.04 | 1.08 | 1.04 | 1.06 | 1.04 | 0.998 | 0.81 | 0.836 | 0.548 | 0.378 | 0.95 | 0.922 | 0.845 | 0.654 | 0.338 | 0.446 | 0.33 | 0.338 | 0.341 | 0.221
A549 | 0.753 | 0.852 | 0.596 | 0.754 | 0.624 |  |  |  |  |  | 0.65 | 0.479 | 0.558 | 0.432 | 0.139 | 0.207 | 0.165 | 0.175 | 0.137 | 0.0717
A-427 | 1.01 | 0.816 | 0.855 | 0.878 | 0.969 | 0.742 | 0.704 | 0.739 | 0.673 | 0.486 | 0.961 | 1.06 | 1 | 0.573 | 0.533 | 0.326 | 0.262 | 0.277 | 0.266 | 0.225
ABC-1 | 0.978 | 0.92 | 0.838 | 1.05 | 1.03 | 0.562 | 0.52 | 0.314 | 0.411 | 0.293 | 0.978 | 0.776 | 0.888 | 0.714 | 0.571 | 0.22 | 0.256 | 0.245 | 0.221 | 0.238
BEN | 0.722 | 0.866 | 0.81 |  | 0.834 | 0.439 | 0.547 | 0.266 | 0.2 | 0.269 | 0.857 | 0.536 | 0.611 | 0.342 | 0.365 | 0.249 | 0.213 | 0.249 | 0.241 | 0.206
CAL-12T | 0.537 | 0.625 | 0.686 | 0.62 | 0.385 | 0.794 | 0.374 | 0.334 | 0.129 | 0.072 | 1.15 | 1.03 | 1.62 | 1.13 | 0.355 | 0.574 | 0.554 | 0.411 | 0.273 | 0.174
COR-L23 | 0.688 | 0.601 | 0.626 | 0.614 | 0.793 | 0.698 | 0.531 | 0.7 | 0.461 | 0.299 | 0.591 | 0.5 | 0.523 | 0.347 | 0.216 | 0.431 | 0.348 | 0.384 | 0.374 | 0.321
COR-L 105 | 0.737 | 0.805 | 0.864 | 0.653 | 0.72 | 0.67 | 0.588 | 0.637 | 0.571 | 0.22 | 0.671 | 0.486 | 0.715 | 0.452 | 0.209 | 0.441 | 0.378 | 0.312 | 0.278 | 0.16
Calu-6 | 0.736 | 0.737 | 0.718 | 0.904 | 0.554 |  |  |  |  |  | 0.801 | 0.665 | 0.731 | 0.613 | 0.576 |  |  |  |  | 
ChaGo-K-1 | 1.13 | 1.12 | 1.08 | 0.972 | 1.04 | 0.555 | 0.543 | 0.591 | 0.486 | 0.366 |  |  |  |  |  | 0.546 | 0.463 | 0.41 | 0.442 | 0.377
EBC-1 | 0.176 | 0.177 | 0.203 | 0.171 | 0.182 |  |  |  |  |  | 0.78 | 0.755 | 0.579 | 0.579 | 0.463 |  |  |  |  | 
EKVX | 0.989 | 0.79 | 0.969 | 0.718 | 0.818 | 0.797 | 0.665 | 0.808 | 0.637 | 0.207 | 0.774 | 0.637 | 0.651 | 0.557 | 0.145 | 0.218 | 0.21 | 0.177 | 0.136 | 0.102
EMC-BAC-2 | 0.677 | 0.728 | 0.737 | 0.588 | 0.509 | 0.978 | 0.93 | 0.942 | 0.558 | 0.44 | 0.632 | 0.478 | 0.466 | 0.285 | 0.194 | 0.476 | 0.326 | 0.429 | 0.224 | 0.172
EPLC-272H | 0.869 | 0.754 | 0.85 | 1.15 | 1 | 0.679 | 0.392 | 0.512 | 0.121 | 0.111 | 1.08 | 0.913 | 1.02 | 0.777 | 0.244 | 0.313 | 0.252 | 0.386 | 0.261 | 0.0761
H3255 | 0.945 | 0.993 | 0.81 | 0.696 | 0.564 | 0.919 | 0.901 | 0.793 | 0.919 | 0.371 | 0.68 | 0.621 | 0.63 | 0.434 | 0.24 | 0.312 | 0.344 | 0.341 | 0.322 | 0.274
